One data set concerns ZR-75-1 (Breast). Nature of the data set: Antiproliferative assay, ZR-75-1. Conditions: Homo sapiens, 120 h, 5 d exposure, mean ± SD, n = 3, read-out: IC50-values for growth inhibition. The class given is cell-based. The protocol:
(§1) Antiproliferative assays are performed as previously described (Int. J. Cancer 43, 851-6 (1989)). Briefly, cells are seeded at 1.5×10^3 cells/well into 96-well microtiter plates and incubated overnight. Compounds are added in serial dilutions on day 1. The plates are then incubated for an additional 2 to 5 days, allowing for at least one cell doubling (cell line dependent), after which the cells are fixed with 3.3% v/v glutaraldehyde, washed with water and stained with 0.05% w/v methylene blue. After washing, the dye is eluted with 3% V/V HCl and the optical density measured at 665 nm with a SpectraMax 340 (Bucherer, Basel, Switzerland). IC50 values are determined by a computerized system (SoftPro, Bucherer, Basel, Switzerland) using the formula (OD test−OD start)/(OD control−OD start)×100. IC50 is defined as the drug concentration which leads to 50% of cells per well compared to control cultures (100%) at the end of incubation period.

The test system of another data set is HCT-15 (Colon). As to the kind of experiment: Antiproliferative assay, HCT-15. The class given is cell-based. To be noted: Homo sapiens, 120 h, 5 d exposure, mean ± SD, n = 3, read-out: IC50-values for growth inhibition.
Excerpt: Human colorectal adenocarcinoma cell line HCT-15 (ATCC CCL 225) is from the American Type Culture Collection (Rockville, Md., USA), and the cells are cultivated in vitro as recommended by the supplier. HCT-15 is an epithelial-like cell line (Cancer Res. 39: 1020-25 [1979]) that is multi-drug resistant by virtue of over-expression of P-glycoprotein (P-gp, gp170, MDR-1; Anticancer Res. 11: 1309-12 [1991]; J. Biol. Chem. 264: 18031-40 [1989]; Int. J. Cancer 1991; 49: 696-703 [1991]) and glutathione-dependent resistance mechanisms (Int. J. Cancer 1991; 49: 688-95.[1991]).
as §1, with “IC50 is defined as the drug concentration which leads to 50% of cells per well compared to control cultures (100%) at the end of incubation period.” left out

The test system of data set [1] is KB-8511 (Epidermoid, MDR). Nature of the data set: Antiproliferative assay, KB-8511. Conditions: Homo sapiens, 48 h, 2 d exposure, mean ± SD, read-out: IC50-values for growth inhibition. Type of data set: cell-based. The protocol:
The human epidermal (mouth) carcinoma cell line KB-8511 (a P-gp over-expressing cell line derived from the epidermoid (mouth) KB-31 carcinoma cell line) is obtained from Dr. R. M. Baker, Roswell Park Memorial Institute (Buffalo, N.Y., USA) (for description see Akiyama et al., Somat. Cell. Mol. Genetics 11, 117-126 (1985) and Fojo A., et al., Cancer Res. 45, 3002-3007 (1985)) and is cultured as previously described (Meyer, T., et al., Int. J. Cancer 43, 851-856 (1989)): KB-8511 cells, like KB-31, are derived from the KB cell line (ATCC) and they are human epidermal carcinoma cells; KB-31 cells can be grown in mono-layer using Dulbecco's modified Eagle's medium (D-MEM) with 10% fetal calf serum (M.A. Bioproducts), L-glutamine (Flow), penicillin (50 units/ml) and streptomycin (50 μg/ml (Flow); they then grow with a doubling time of 22 h, and their relative plating efficiency is approximately 60%.
(§2) Antiproliferative assays are performed as previously described (Int. J. Cancer 43, 851-6 (1989)). […] After washing, the dye is eluted with 3% V/V HCl and the optical density measured at 665 nm with a SpectraMax 340 (Bucherer, Basel, Switzerland). IC50 values are determined by a computerized system (SoftPro, Bucherer, Basel, Switzerland) using the formula (OD test−OD start)/(OD control−OD start)×100. […]

The next data set has as its system PC-3M (Prostate). As to the kind of experiment: Antiproliferative assay, PC-3M. The class given is cell-based. To be noted: Homo sapiens, 72 h, 3 d exposure, mean ± SD, read-out: IC50-values for growth inhibition. How it is done: A human androgen-independent prostate cancer cell line is used to establish subcutaneous and orthotopic models in mice. The human metastatic prostate carcinoma PC-3M is obtained from Dr. I. J. Fidler (MD Anderson Cancer Center, Houston, Tex., USA) and is cultured in Ham's F12K media supplemented with 7% v/v FBS. The PC-3M cell line is the result of isolation from liver metastasis produced in nude mice subsequent to intrasplenic injection of PC-3 cells [ATCC CRL 1435; American Type Culture Collection (Rockville, Md., USA)], and they can grow in Eagle's MEM supplemented with 10% fetal bovine serum, sodium pyruvate, non-essential amino acids, L-glutamine, a two-fold vitamin solution (Gibco Laboratories, Long Island, N.Y.) and penicillin-streptomycin (Flow Laboratories, Rockville, Md.). The PC-3M cell line is hormone-insensitive (that is, it grows in the absence of androgens). […] No normal Y chromosomes can be detected by Q-band analysis.
as §2

Data set [2] has as its system human HCT-15 colon carcinoma. Type of data set: in vivo, female BALB/c nude mice. The protocol: (§3) Female or male BALB/c nu/nu (nude) mice are kept under sterile conditions (10 to 12 mice per Type III cage) with free access to food and water. Mice weigh between 20 and 25 grams at the time of tumor implantation. Tumors are established by subcutaneous injection of cells (minimum 2×10^6 cells in 100 μl PBS or medium) in carrier mice (4-8 mice per cell line). The resulting tumors are serially passaged for a minimum of three consecutive transplantations prior to start of treatment. Tumor fragments (approx. 25 mg) are implanted s.c. into the left flank of animals with a 13-gauge trocar needle while the mice are exposed to Forene (Abbott, Switzerland) anesthesia.
(§4) Tumor growth and body weights are monitored once or twice weekly. All treatments are administered intravenously (i.v.) and are initiated when a mean tumor volume of approximately 100 to 250 mm^3 is attained, depending upon the tumor type. Tumor volumes are determined using the formula […] (see Cancer Chemother. Pharmacol. 24:148-154, [1989]). Treatments with epothilone B vary the dose and the frequency of administration. Comparator agents are administered according to previously determined optimal treatment regimens. In addition to presenting changes in tumor volumes over the course of treatment, antitumor activity is expressed as T/C% (mean increase of tumor volumes of treated animals divided by the mean increase of tumor volumes of control animals multiplied by 100). Tumor regression (%) represents the smallest mean tumor volume compared to the mean tumor volume at the start of treatment, according to the formula Regression (%)=(1−Vend/Vstart)×100 (Vend=final mean tumor volume, Vstart=mean tumor volume at the start of treatment. Any animals in which the tumor has reached a size exceeding approximately 1.5 to 2.5 cm^3 are sacrificed. Details can be found below.
Tumor fragments of approximately 25 mg are implanted into the left flank of each female nude mouse (n=8 per group). Treatments are started on day 14 after tumor transplantation. Epothilone B is administered once at 4 mg/kg, i.v. on day 14.5-Fluorouracil is administered at 75 mg/kg, i.v., on days 14 and 21. TAXOL® is administered i.v. at 20 mg/kg/day, every second day for 5 treatments (days 14, 16, 18, 20 and 22). Antitumor activity is expressed as T/C% (mean increase of tumor volumes of treated animals divided by the mean increase of tumor volumes of control animals multiplied by 100). Tumor regression (%) represents the final mean tumor volume compares to the mean tumor volume at the start of treatment. Δ Tumor volumes represent the tumor volume on the last treatment day minus the tumor volume on the first treatment day. Statistical analyses on Δ tumor volumes uses Dunnett's test to compare treatment groups to controls. Statistical analyses on body weight changes uses paired t-tests comparing body weights before treatment to those at the end of treatment; mice weigh ˜20-25 g at the start of treatment. Not significant is indicated by the abbreviation ,ns”. Data presented are means±SEM from animals surviving to the end of the experiment.

Data set [3] relates to human COLO 205 colon tumors. Type of data set: in vivo, female BALB/c nude mice. To be noted: 75 mg/kg, i.v. every 7 days; day 32. The protocol: as §3, §4
Tumor fragments of approximately 25 mg are implanted into the left flank of each female nude mouse (n=7 per group); a subcutaneous estrogen pellet is placed on the opposite flank. Treatments are started on day 14 after tumor transplantation. epothilone B is administered at 4 mg/kg, i.v., either once or once per week (days 14, 21, 28) or every second week (days 14 and 28). 5-fluorouracil is administered i.v. at 75 mg/kg on days 14, 21, 28. Data presented are from animals surviving to day 32, four days after the last treatments. Antitumor activity is expressed as T/C% (mean increase of tumor volumes of treated animals divided by the mean increase of tumor volumes of control animals multiplied by 100). Tumor regression (%) represents the final mean tumor volume compared to the mean tumor volume at the start of treatment. Changes (A) in tumor volumes represent the tumor volume on the last treatment day minus the tumor volume on the first treatment day.

A word on the IC50: it is the concentration at which inhibition is half-maximal. As usually defined, the T/C is the ratio of treated to control.

As to `CC(=O)O[C@H]1C(=O)[C@@]2(C)[C@H]([C@H](OC(=O)c3ccccc3)[C@]3(O)C[C@H](OC(=O)[C@H](O)[C@@H](NC(=O)c4ccccc4)c4ccccc4)C(C)=C1C3(C)C)[C@]1(OC(C)=O)CO[C@@H]1C[C@@H]2O` [paclitaxel], the IC50 was 0.0036 ± 0.00187 µM in the data set with ZR-75-1 (Breast), 0.106 ± 0.054 µM in the data set with HCT-15 (Colon), 0.994 µM in data set [1] and 0.00674 µM with PC-3M (Prostate).

Turning to `O=c1[nH]cc(F)c(=O)[nH]1` [5-fluorouracil, reference compound], in data set [2] (75 mg/kg, i.v., on days 14 and 21), the “% Body Weight Change” value was found to be 9 ± 4%. The “D Body Weight” value in data set [2] (75 mg/kg, i.v., on days 14 and 21, mean ± SEM) was 2.0 ± 0.7 g. Moreover, the “Mortalities (deaths)” value in data set [2] (two 75 mg/kg administrations) came out at 50%. The T/C in data set [3] worked out at 18%.

The values above are taken from US20040024033A1 (priority 1998, published 2004).
